Patent publication US10300065B2, “Method of treating or prevention of atherothrombotic events in patients with history of myocardial infarction” (ASTRAZENECA AB, priority 2015, dated 2019)
Read-outs that look alike come from different tables or passages of the source.

Tests used:
platelets [1] = assay: Light transmittance aggregometry (LTA; ADP 20 uM), platelet function substudy; assay type: cell-based, human; details: for Emax: Homo sapiens, Platelet, mean (SD)
Description: (§1) The pharmacokinetics (PK) and pharmacodynamics of the 60 mg bid dose had not previously been studied. […] 180 patients who had received >4 weeks of study medication had blood sampling in the morning pre-maintenance dose and again 2 h post-dose. All patients were receiving aspirin. […] Well-known VerifyNow® P2Y12 assay and light transmittance aggregometry (LTA; ADP 20 uM) were performed. Groups were compared using Kruskal-Wallis test with significance attached to P<0.01 to allow for multiple group comparisons.

[2] = test system: patients with a history of myocardial infarction; assay: PEGASUS-TIMI 54 trial, efficacy endpoints (intention-to-treat / full analysis set); assay type: in vivo, human; details: for Stent thrombosis: KM %: at 36 months; for Composite of CV Death/MI/Stroke, landmark: KM % at 24 months: cumulative from day 361 to day 720; for Composite of CV Death/MI/Stroke, landmark: KM % at 36 months: cumulative from day 361 to day 1080; for Hospitalization for Unstable Angina: (%) / Transient Ischemic Attack: (%) / Urgent Coronary Revascularization for Unstable Angina: (%): at 3 years; for ischemic events prevented if 10,000 patients were started on treatment versus placebo: intention-to-treat data
Description: The PEGASUS-TIMI 54 trial (also referred to as the PEGASUS trial or PEGASUS study herein) was a randomized, double-blind, placebo-controlled multinational clinical trial that enrolled over 21,000 patients at 1,161 sites in 31 countries. The protocol was approved by the relevant ethics committees at all participating sites. In the U.S., the PEGASUS trial was assigned a ClinicalTrials.gov number of NCT01225562.
Patients could be randomized regardless of their prior adenosine diphosphate (ADP) receptor blocker therapy or a lapse in therapy.
Randomization was performed using a central computerized telephone or web based system, and allocation was double-blind.
All patients enrolled in the PEGASUS trial were instructed to take open label aspirin at a dose of 75 to 150 mg daily.
A total of 1360 primary endpoint events would be required to provide approximately 90% power to detect a 20% relative risk reduction with the 90 mg twice daily dose and approximately 83% power to detect a 19% relative risk reduction with the 60 mg twice daily dose when each dose was compared individually with placebo. The primary efficacy analysis was conducted on an intention-to-treat basis, with each of the two doses individually compared to placebo, as a time to event analysis from randomization to the first occurrence of any element of the primary composite endpoint: cardiovascular death, myocardial infarction, or stroke. […] An exploratory analysis of both doses combined compared with placebo was prespecified.

platelets [3] = assay: VerifyNow P2Y12 assay (platelet reactivity, PRU), platelet function substudy; assay type: cell-based, human; details: for VerifyNow % inhibition Post dose / VerifyNow PRU Post dose: 2 h post dose; for VerifyNow % inhibition Post dose / VerifyNow PRU Post dose / VerifyNow % inhibition Pre dose / VerifyNow PRU Pre dose: mean (SD)
Description: as §1

[4] = 60 mg bd, 5695 patients with a coronary stent
[5] = 60 mg bid vs. placebo (N = 6958)
[6] = 90 mg bd, 5651 patients with a coronary stent
[7] = 90 mg bid vs. placebo (N = 6988)

## CCCSc1nc(N[C@@H]2C[C@H]2c2ccc(F)c(F)c2)c2nnn([C@@H]3C[C@H](OCCO)[C@@H](O)[C@H]3O)c2n1 [Ticagrelor, (1S,2S,3R,5S)-3-[7-{[(1R,2S)-2-(3,4-difluorophenyl)cyclopropyl]amino}-5-(propylthio)-3H-[1,2,3]-triazolo[4,5-d]pyrimidin-3-yl]-5-(2-hydroxyethoxy)cyclopentane-1,2-diol]
Platelets [1]; 90 mg vs 60 mg
  Platelet reactivity pre- and post-dose as measured by LTA: numerically but not significantly lower with 90 mg than 60 mg
Platelets [1]; 2 h, ticagrelor 60 mg bid, 2 h post dose, read-out: LTA Max response (maximum % aggregation response) Post dose
  Emax: 33%
Platelets [1]; 2 h, ticagrelor 90 mg bid, 2 h post dose, read-out: LTA Max response (maximum % aggregation response) Post dose
  Emax: 29%
Platelets [1]; ticagrelor 60 mg bid, pre dose, read-out: LTA Max response (maximum % aggregation response) Pre dose
  Emax: 39%
Platelets [1]; ticagrelor 90 mg bid, pre dose, read-out: LTA Max response (maximum % aggregation response) Pre dose
  Emax: 36%
[2]; 60 mg bd vs placebo
  Time to first stent thrombosis: HR: 0.82
[2]; 60 mg bd, 1-360 days
  Composite of CV Death/MI/Stroke, landmark: KM % at 12 months: 2.7%
  Composite of CV Death/MI/Stroke, landmark: Patients with events: 189
  Composite of CV Death/MI/Stroke, landmark: Patients with events (%): (2.7%)
[2]; [4]
  Stent thrombosis: Patients (%) with events: (0.7%)
  Stent thrombosis: Patients with events: 41
[2]; 60 mg bd, 361 days or more
  Composite of CV Death/MI/Stroke, landmark: Patients with events: 298
  Composite of CV Death/MI/Stroke, landmark: Patients with events (%): (4.4%)
[2]; 60 mg bd
  Stent thrombosis: KM %: 0.8%
  Composite of CV Death/MI/Stroke, landmark: KM % at 24 months: 2.7%
  Composite of CV Death/MI/Stroke, landmark: KM % at 36 months: 5.2%
[2]; 60 mg bid
  MI: ARR (%): 0.72%
  MI: NNT: 139
  Stroke: ARR (%): 0.47%
  Stroke: NNT: 213
  ischemic events prevented if 10,000 patients were started on treatment versus placebo: 42
[2]; 60 mg bid (N = 7045)
  All Stroke: n: 91
  Cardiovascular Death or Myocardial infarction: 3-year Kaplan-Meier estimate: (6.77) %
  Cardiovascular Death or Myocardial infarction: n: 422
  Cardiovascular Death, Myocardial infarction, or Stroke: 3-year Kaplan-Meier estimate: 7.77%
  Cardiovascular Death, Myocardial infarction, or Stroke: n: 487
  Cardiovascular Death: n: 174
  Coronary Heart Disease Death or Myocardial infarction: 3-year Kaplan-Meier estimate: (5.57) %
  Coronary Heart Disease Death or Myocardial infarction: n: 360
  Coronary Heart Disease Death, Myocardial infarction, or Stroke: 3-year Kaplan-Meier estimate: (7.09) %
  Coronary Heart Disease Death, Myocardial infarction, or Stroke: n: 445
  Coronary Heart Disease Death: 3-year Kaplan-Meier estimate: (1.72) %
  Coronary Heart Disease Death: n: 106
  Death from any cause: n: 289
  Hospitalization for Unstable Angina: n: 39
  Ischemic Stroke: 3-year Kaplan-Meier estimate: (1.28) %
  Ischemic Stroke: n: 78
  Myocardial infarction as first-occurring component of the composite: n (patients with event): 283
  Myocardial infarction: n: 285
  Stroke as first-occurring component of the composite: n (patients with event): 88
  Transient Ischemic Attack: n: 17
  Urgent Coronary Revascularization for Unstable Angina: n: 62
  Hospitalization for Unstable Angina: (%): (0.61) %
  Transient Ischemic Attack: (%): (0.27) %
  Urgent Coronary Revascularization for Unstable Angina: (%): (0.95) %
[2]; 60 mg bid vs Placebo
  Cardiovascular Death or Myocardial infarction: HR: 0.85
  Cardiovascular Death, Myocardial infarction, or Stroke: HR: 0.84
  Cardiovascular Death: HR: 0.83
  Coronary Heart Disease Death or Myocardial infarction: HR: 0.84
  Coronary Heart Disease Death, Myocardial infarction, or Stroke: HR: 0.83
  Coronary Heart Disease Death: HR: 0.80
  Coronary stent thrombosis: RRR: 18%
  Death from any cause: HR: 0.89
  Hospitalization for Unstable Angina: HR: 1.05
  Ischemic Stroke: HR: 0.76
  Transient Ischemic Attack: HR: 1.00
  Urgent Coronary Revascularization for Unstable Angina: HR: 0.82
  coronary heart disease death, myocardial infarction, or stroke: RRR: 17%
[2]; [5]
  Irreversible harm (CV death, MI, stroke, ICH, or fatal bleeding): HR: 0.86
  Irreversible harm (CV death, MI, stroke, ICH, or fatal bleeding): RRR (%): 14%
  Net clinical benefit (CV death, MI, stroke, or TIMI major bleeding): HR: 0.95
  Net clinical benefit (CV death, MI, stroke, or TIMI major bleeding): RRR (%): 5%
[2]; 90 mg bd vs placebo
  Time to first stent thrombosis: HR: 0.64
[2]; 90 mg bd, 1-360 days
  Composite of CV Death/MI/Stroke, landmark: KM % at 12 months: 2.8%
  Composite of CV Death/MI/Stroke, landmark: Patients with events: 198
  Composite of CV Death/MI/Stroke, landmark: Patients with events (%): (2.8%)
[2]; [6]
  Stent thrombosis: Patients (%) with events: (0.6%)
  Stent thrombosis: Patients with events: 32
[2]; 90 mg bd, 361 days or more
  Composite of CV Death/MI/Stroke, landmark: Patients with events: 295
  Composite of CV Death/MI/Stroke, landmark: Patients with events (%): (4.4%)
[2]; 90 mg bd
  Stent thrombosis: KM %: 0.6%
  Composite of CV Death/MI/Stroke, landmark: KM % at 24 months: 2.4%
  Composite of CV Death/MI/Stroke, landmark: KM % at 36 months: 5.2%
[2]; 90 mg bid
  MI: ARR (%): 0.85%
  MI: NNT: 118
  Stroke: ARR (%): 0.33%
  Stroke: NNT: 303
  ischemic events prevented if 10,000 patients were started on treatment versus placebo: 40
[2]; 90 mg bid (N = 7050)
  All Stroke: 3-year Kaplan-Meier estimate: (1.61) %
  All Stroke: n: 100
  Cardiovascular Death or Myocardial infarction: 3-year Kaplan-Meier estimate: (6.79) %
  Cardiovascular Death or Myocardial infarction: n: 424
  Cardiovascular Death, Myocardial infarction, or Stroke: 3-year Kaplan-Meier estimate: (7.85) %
  Cardiovascular Death, Myocardial infarction, or Stroke: n: 493
  Cardiovascular Death: 3-year Kaplan-Meier estimate: (2.94) %
  Cardiovascular Death: n: 182
  Coronary Heart Disease Death or Myocardial infarction: 3-year Kaplan-Meier estimate: (5.59) %
  Coronary Heart Disease Death or Myocardial infarction: n: 350
  Coronary Heart Disease Death, Myocardial infarction, or Stroke: 3-year Kaplan-Meier estimate: (6.99) %
  Coronary Heart Disease Death, Myocardial infarction, or Stroke: n: 438
  Coronary Heart Disease Death: 3-year Kaplan-Meier estimate: (1.53) %
  Coronary Heart Disease Death: n: 97
  Death from any cause: 3-year Kaplan-Meier estimate: (5.15) %
  Death from any cause: n: 326
  Hospitalization for Unstable Angina: n: 33
  Ischemic Stroke: 3-year Kaplan-Meier estimate: (1.41) %
  Ischemic Stroke: n: 88
  Myocardial infarction: 3-year Kaplan-Meier estimate: (4.40) %
  Myocardial infarction: n: 275
  Transient Ischemic Attack: n: 17
  Urgent Coronary Revascularization for Unstable Angina: n: 74
  Hospitalization for Unstable Angina: (%): (0.50) %
  Transient Ischemic Attack: (%): (0.27) %
  Urgent Coronary Revascularization for Unstable Angina: (%): (1.16) %
[2]; 90 mg bid (N = 7050), listed as ticagrelor
  Cardiovascular Death, Myocardial infarction, or Stroke: 3-year Kaplan-Meier estimate: 7.85%
[2]; 90 mg bid vs Placebo
  All Stroke: HR: 0.82
  Cardiovascular Death or Myocardial infarction: HR: 0.85
  Cardiovascular Death, Myocardial infarction, or Stroke: HR: 0.85
  Cardiovascular Death: HR: 0.87
  Coronary Heart Disease Death or Myocardial infarction: HR: 0.81
  Coronary Heart Disease Death, Myocardial infarction, or Stroke: HR: 0.82
  Coronary Heart Disease Death: HR: 0.73
  Coronary stent thrombosis: RRR: 36%
  Death from any cause: HR: 1.00
  Hospitalization for Unstable Angina: HR: 0.89
  Ischemic Stroke: HR: 0.85
  Myocardial infarction: HR: 0.81
  Transient Ischemic Attack: HR: 1.00
  Urgent Coronary Revascularization for Unstable Angina: HR: 0.97
  coronary heart disease death, myocardial infarction, or stroke: RRR: 18%
[2]; [7]
  Irreversible harm (CV death, MI, stroke, ICH, or fatal bleeding): HR: 0.88
  Irreversible harm (CV death, MI, stroke, ICH, or fatal bleeding): RRR (%): 12%
  Net clinical benefit (CV death, MI, stroke, or TIMI major bleeding): HR: 1.00
  Net clinical benefit (CV death, MI, stroke, or TIMI major bleeding): RRR (%): 0%
Platelets [3]; 60 mg, post dose
  High platelet reactivity assessed by VerifyNow (PRU >208): absent
Platelets [3]; 60 mg, pre-dose
  High platelet reactivity assessed by VerifyNow (PRU >208), patients: 3.5%
Platelets [3]; ticagrelor 60 mg bid
  VerifyNow % inhibition Post dose: 90 (13) %
  VerifyNow PRU Post dose: 29 (39) PRU
  VerifyNow % inhibition Pre dose: 78 (20) %
  VerifyNow PRU Pre dose: 59 (63) PRU
Platelets [3]; ticagrelor 90 mg bid
  VerifyNow % inhibition Post dose: 92 (8) %
  VerifyNow PRU Post dose: 20 (19) PRU
  VerifyNow % inhibition Pre dose: 83 (14) %
  VerifyNow PRU Pre dose: 47 (43) PRU
